# Measurements as given in US12281149B2, “Modulators of G-protein coupled receptors” (priority 2021, dated 2025).
# *1 amine or outer side, *2 acyl side, *3 side chain or, on linkers, in order; H or OH if unused. Where a SMILES comes first, the peptide text is derived from it. Side-chain parts run from the residue outwards. [ ]: non-standard residue; d: D form. The star is where a group is joined. Isobutyryl(2-(3-CN-5-F-Ph)) = CC(C)(C(=O)*)c1cc(F)cc(C#N)c1; cPentCO(1-(4-ClPh)) = O=C(C1(c2ccc(Cl)cc2)CCCC1)*; C20 diacid = O=C(O)CCCCCCCCCCCCCCCCCCC(=O)*; β2hAla(2S) = C[C@@H](CN[*:1])C(=O)[*:2]; γGlu = O=C(O)[C@H](CCC(=O)[*:2])N[*:1]; X71 = COc1cc(F)cc(C(C)(C)C(=O)*)c1; αMeF = C[C@](N)(Cc1ccccc1)C(=O)O; X60 = O=C(C1(c2cccnc2)CCCC1)*; AEEA = NCCOCCOCC(=O)O; Aib = CC(C)(N)C(=O)O; βAla = NCCC(=O)O
# What was measured:
# Format in all cases: cell-based
# GLP-1 receptor [1] = biological target: T1, GLP-1 receptor (Homo sapiens, UniProt P43220); test: HitHunter cAMP assay, GLP-1 receptor; conditions: for EC50: CHO cells stably expressing human GLP-1 receptor, cAMP accumulation, 30 min, read-out: EC50 GLP-1R; for Emax: CHO cells, cAMP, normalized to maximum signal from GLP-1 (high) and DMSO (low), read-out: Emax GLP-1R
# GIP receptor [2] = biological target: T2, GIP receptor (Homo sapiens, UniProt P48546); test: HitHunter cAMP assay, GIP receptor; conditions: for EC50: CHO cells stably expressing GIP receptor, cAMP accumulation, 30 min, read-out: EC50 GIP-1R; for Emax: CHO cells, cAMP, normalized to maximum signal from GIP (high) and DMSO (low), read-out: Emax GIP-1R
# T2 sequence (P48546 22-466): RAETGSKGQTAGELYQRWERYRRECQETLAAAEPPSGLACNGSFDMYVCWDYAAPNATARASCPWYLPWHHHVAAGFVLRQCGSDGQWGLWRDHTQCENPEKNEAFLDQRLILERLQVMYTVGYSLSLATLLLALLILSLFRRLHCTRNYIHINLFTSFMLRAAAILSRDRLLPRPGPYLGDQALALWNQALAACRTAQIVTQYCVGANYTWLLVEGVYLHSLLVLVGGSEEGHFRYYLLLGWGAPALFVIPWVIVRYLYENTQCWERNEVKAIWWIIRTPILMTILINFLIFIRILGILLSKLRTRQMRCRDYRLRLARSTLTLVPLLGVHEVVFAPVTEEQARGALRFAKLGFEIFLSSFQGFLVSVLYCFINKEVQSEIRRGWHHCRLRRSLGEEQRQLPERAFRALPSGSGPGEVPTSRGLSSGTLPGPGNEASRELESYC
# GIP receptor [3] = biological target: T2, GIP receptor; test: PathHunter β-arrestin assay, GIP receptor; parameters: host or cells: PathHunter CHO-K1 GIPR β-Arrestin Cell Line; conditions: β-arrestin-2 recruitment, PathHunter CHO-K1 GIPR β-Arrestin Cell Line, 90 min at 37° C.; normalized to GIP; read-out: GIPR β Arrestin EC50
# GLP-1 receptor [4] = biological target: T1, GLP-1 receptor; test: PathHunter β-arrestin assay, GLP-1 receptor; parameters: host or cells: PathHunter CHO-K1 GLP1R β-Arrestin Cell Line; conditions: β-arrestin-2 recruitment, PathHunter CHO-K1 GLP1R β-Arrestin Cell Line, 90 min at 37° C.; normalized to GLP-1; read-out: GLP-1R β Arrestin EC50
# T1 sequence (P43220 24-463): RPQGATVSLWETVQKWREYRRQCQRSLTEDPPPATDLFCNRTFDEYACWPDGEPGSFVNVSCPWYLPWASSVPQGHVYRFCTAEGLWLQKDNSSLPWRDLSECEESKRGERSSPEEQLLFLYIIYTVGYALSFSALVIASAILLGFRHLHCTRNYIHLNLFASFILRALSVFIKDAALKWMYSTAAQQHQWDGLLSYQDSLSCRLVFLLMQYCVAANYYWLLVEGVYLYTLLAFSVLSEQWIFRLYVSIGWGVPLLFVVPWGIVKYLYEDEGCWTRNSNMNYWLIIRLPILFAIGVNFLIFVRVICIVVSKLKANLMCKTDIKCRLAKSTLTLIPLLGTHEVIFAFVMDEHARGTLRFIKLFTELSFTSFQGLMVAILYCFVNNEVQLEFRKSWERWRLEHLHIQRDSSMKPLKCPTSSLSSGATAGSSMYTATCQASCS
Structure (SMILES),EC50 (GLP-1 receptor [1]) [nM],Emax (GLP-1 receptor [1]) [%],EC50 (GIP receptor [2]) [nM],Emax (GIP receptor [2]) [%],EC50 (GIP receptor [3]) [nM],EC50 (GLP-1 receptor [4]) [nM]
CC[C@H](C)[C@H](NC(=O)[C@H](CC(C)C)NC(=O)[C@H](Cc1c[nH]c2ccccc12)NC(=O)[C@H](CCC(N)=O)NC(=O)[C@@H](NC(=O)[C@H](Cc1ccccc1)NC(=O)[C@H](C)NC(=O)[C@H](CCCCNC(=O)COCCOCCNC(=O)COCCOCCNC(=O)CC[C@H](NC(=O)CCCCCCCCCCCCCCCCCCC(=O)O)C(=O)O)NC(=O)[C@H](CCC(N)=O)NC(=O)[C@H](C)NC(=O)[C@@H](NC(=O)[C@H](CCCCN)NC(=O)[C@H](CC(=O)O)NC(=O)[C@H](CC(C)C)NC(=O)C(C)(C)NC(=O)[C@@H](NC(=O)[C@H](CO)NC(=O)[C@H](Cc1ccc(O)cc1)NC(=O)[C@H](CC(=O)O)NC(=O)[C@H](CO)NC(=O)[C@@H](NC(=O)[C@](C)(Cc1ccccc1)NC(=O)[C@@H](NC(=O)CNC(=O)[C@H](CCC(=O)O)NC(=O)CCNC(=O)C1(c2cccnc2)CCCC1)[C@@H](C)O)[C@@H](C)O)[C@@H](C)CC)[C@@H](C)CC)C(C)C)C(=O)N[C@@H](C)C(=O)NCC(=O)NCC(=O)N1CCC[C@H]1C(=O)N[C@@H](CO)C(=O)N[C@@H](CO)C(=O)NCC(=O)N[C@@H](C)C(=O)N1CCC[C@H]1C(=O)N1CCC[C@H]1C(=O)N1CCC[C@H]1C(=O)N[C@@H](CO)C(N)=O [Compound 234] ({X60-βAla}-EGT[αMeF]TSDYSI[Aib]LDKIAQK([AEEA-AEEA-γGlu-C20 diacid])AFVQWLIAGGPSSGAPPPS-NH2),0.1 to 1,105,0.1 to 1,112,< 1000,> 1000
CC[C@H](C)[C@H](NC(=O)[C@H](CC(C)C)NC(=O)[C@H](Cc1c[nH]c2ccccc12)NC(=O)[C@H](CCC(N)=O)NC(=O)[C@@H](NC(=O)[C@H](Cc1ccccc1)NC(=O)[C@H](C)NC(=O)[C@H](CCCCNC(=O)COCCOCCNC(=O)COCCOCCNC(=O)CC[C@H](NC(=O)CCCCCCCCCCCCCCCCCCC(=O)O)C(=O)O)NC(=O)[C@H](CCC(N)=O)NC(=O)[C@H](C)NC(=O)[C@@H](NC(=O)[C@H](CCCCN)NC(=O)[C@H](CC(=O)O)NC(=O)[C@H](CC(C)C)NC(=O)C(C)(C)NC(=O)[C@@H](NC(=O)[C@H](CO)NC(=O)[C@H](Cc1ccc(O)cc1)NC(=O)[C@H](CC(=O)O)NC(=O)[C@H](CO)NC(=O)[C@@H](NC(=O)[C@H](Cc1ccccc1)NC(=O)[C@@H](NC(=O)CNC(=O)[C@H](CCC(=O)O)NC(=O)CCNC(=O)C(C)(C)c1cc(F)cc(OC)c1)[C@@H](C)O)[C@@H](C)O)[C@@H](C)CC)[C@@H](C)CC)C(C)C)C(=O)N[C@@H](C)C(=O)NCC(=O)NCC(=O)N1CCC[C@H]1C(=O)N[C@@H](CO)C(=O)N[C@@H](CO)C(=O)NCC(=O)N[C@@H](C)C(=O)N1CCC[C@H]1C(=O)N1CCC[C@H]1C(=O)N1CCC[C@H]1C(=O)N[C@@H](CO)C(N)=O [Compound 118] ({X71-βAla}-EGTFTSDYSI[Aib]LDKIAQK([AEEA-AEEA-γGlu-C20 diacid])AFVQWLIAGGPSSGAPPPS-NH2),1 to 10,103,10 to 100,105,> 1000,> 1000
CC[C@H](C)[C@H](NC(=O)[C@H](CC(C)C)NC(=O)[C@H](Cc1c[nH]c2ccccc12)NC(=O)[C@H](CCC(N)=O)NC(=O)[C@@H](NC(=O)[C@H](Cc1ccccc1)NC(=O)[C@H](C)NC(=O)[C@H](CCCCNC(=O)COCCOCCNC(=O)COCCOCCNC(=O)CC[C@H](NC(=O)CCCCCCCCCCCCCCCCCCC(=O)O)C(=O)O)NC(=O)[C@H](CCC(N)=O)NC(=O)[C@H](C)NC(=O)[C@@H](NC(=O)[C@H](CCCCN)NC(=O)[C@H](CC(=O)O)NC(=O)[C@H](CC(C)C)NC(=O)C(C)(C)NC(=O)[C@@H](NC(=O)[C@H](CO)NC(=O)[C@H](Cc1ccc(O)cc1)NC(=O)[C@H](CC(=O)O)NC(=O)[C@H](CO)NC(=O)[C@@H](NC(=O)[C@H](Cc1ccccc1)NC(=O)[C@@H](NC(=O)CNC(=O)[C@H](CCC(=O)O)NC(=O)CCNC(=O)C1(c2ccc(Cl)cc2)CCCC1)[C@@H](C)O)[C@@H](C)O)[C@@H](C)CC)[C@@H](C)CC)C(C)C)C(=O)N[C@@H](C)C(=O)NCC(=O)NCC(=O)N1CCC[C@H]1C(=O)N[C@@H](CO)C(=O)N[C@@H](CO)C(=O)NCC(=O)N[C@@H](C)C(=O)N1CCC[C@H]1C(=O)N1CCC[C@H]1C(=O)N1CCC[C@H]1C(=O)N[C@@H](CO)C(N)=O [Compound 217] ({cPentCO(1-(4-ClPh))-βAla}-EGTFTSDYSI[Aib]LDKIAQK([AEEA-AEEA-γGlu-C20 diacid])AFVQWLIAGGPSSGAPPPS-NH2),0.1 to 1,101,0.1 to 1,108,> 1000,> 1000
CC[C@H](C)[C@H](NC(=O)[C@H](CC(C)C)NC(=O)[C@H](Cc1c[nH]c2ccccc12)NC(=O)[C@H](CCC(N)=O)NC(=O)[C@@H](NC(=O)[C@H](Cc1ccccc1)NC(=O)[C@H](C)NC(=O)[C@H](CCCCNC(=O)COCCOCCNC(=O)COCCOCCNC(=O)CC[C@H](NC(=O)CCCCCCCCCCCCCCCCCCC(=O)O)C(=O)O)NC(=O)[C@H](CCC(N)=O)NC(=O)[C@H](C)NC(=O)[C@@H](NC(=O)[C@H](CCCCN)NC(=O)[C@H](CC(=O)O)NC(=O)[C@H](CC(C)C)NC(=O)C(C)(C)NC(=O)[C@@H](NC(=O)[C@H](CO)NC(=O)[C@H](Cc1ccc(O)cc1)NC(=O)[C@H](CC(=O)O)NC(=O)[C@H](CO)NC(=O)[C@@H](NC(=O)[C@H](Cc1ccccc1)NC(=O)[C@@H](NC(=O)CNC(=O)[C@H](CCC(=O)O)NC(=O)[C@@H](C)CNC(=O)C(C)(C)c1cc(F)cc(C#N)c1)[C@@H](C)O)[C@@H](C)O)[C@@H](C)CC)[C@@H](C)CC)C(C)C)C(=O)N[C@@H](C)C(=O)NCC(=O)NCC(=O)N1CCC[C@H]1C(=O)N[C@@H](CO)C(=O)N[C@@H](CO)C(=O)NCC(=O)N[C@@H](C)C(=O)N1CCC[C@H]1C(=O)N1CCC[C@H]1C(=O)N1CCC[C@H]1C(=O)N[C@@H](CO)C(N)=O [Compound 224] ({Isobutyryl(2-(3-CN-5-F-Ph))}-[β2hAla(2S)]EGTFTSDYSI[Aib]LDKIAQK([AEEA-AEEA-γGlu-C20 diacid])AFVQWLIAGGPSSGAPPPS-NH2),0.1 to 1,102,1 to 10,103,< 1000,> 1000
CC[C@H](C)[C@H](NC(=O)[C@H](CC(C)C)NC(=O)[C@H](Cc1c[nH]c2ccccc12)NC(=O)[C@H](CCC(N)=O)NC(=O)[C@@H](NC(=O)[C@H](Cc1ccccc1)NC(=O)[C@H](C)NC(=O)[C@H](CCCCNC(=O)COCCOCCNC(=O)COCCOCCNC(=O)CC[C@H](NC(=O)CCCCCCCCCCCCCCCCCCC(=O)O)C(=O)O)NC(=O)[C@H](CCC(N)=O)NC(=O)[C@H](C)NC(=O)[C@@H](NC(=O)[C@H](CCCCN)NC(=O)[C@H](CC(=O)O)NC(=O)[C@H](CC(C)C)NC(=O)C(C)(C)NC(=O)[C@@H](NC(=O)[C@H](CO)NC(=O)[C@H](Cc1ccc(O)cc1)NC(=O)[C@H](CC(=O)O)NC(=O)[C@H](CO)NC(=O)[C@@H](NC(=O)[C@H](Cc1ccccc1)NC(=O)[C@@H](NC(=O)CNC(=O)[C@H](CCC(=O)O)NC(=O)CCNC(=O)C(C)(C)c1cc(F)cc(C#N)c1)[C@@H](C)O)[C@@H](C)O)[C@@H](C)CC)[C@@H](C)CC)C(C)C)C(=O)N[C@@H](C)C(=O)NCC(=O)NCC(=O)N1CCC[C@H]1C(=O)N[C@@H](CO)C(=O)N[C@@H](CO)C(=O)NCC(=O)N[C@@H](C)C(=O)N1CCC[C@H]1C(=O)N1CCC[C@H]1C(=O)N1CCC[C@H]1C(=O)N[C@@H](CO)C(=O)O [Compound 169] ({Isobutyryl(2-(3-CN-5-F-Ph))-βAla}-EGTFTSDYSI[Aib]LDKIAQK([AEEA-AEEA-γGlu-C20 diacid])AFVQWLIAGGPSSGAPPPS-OH),0.1 to 1,108,1 to 10,110,< 1000,> 1000
